Test results reported in patent US6100077A, “Isolation of a gene encoding diacylglycerol acyltransferase” (priority 1998, dated 2000).
Entries after “also recorded” stand apart in the source; their conditions may differ. Read-outs that look alike come from different tables or passages of the source.

How the values were obtained:
human ACAT1 = molecular target: T1, human ACAT1 (Homo sapiens, UniProt P35610); experiment: In vitro assay of ACAT activity in yeast microsomes expressing human ACAT1 (inhibitor sensitivity); type: biochemical
T1 construct: A cDNA corresponding to the coding region of human ACAT1 flanked by 5 bp of 5' untranslated region and 1 bp of 3' untranslated region; made in house; host or cells: Saccharomyces cerevisiae strain SCY059 (are1 are2 deleted), vector pRS426GP, GAL1/GAL10 promoter; microsomes
T1 sequence (P35610 1-550): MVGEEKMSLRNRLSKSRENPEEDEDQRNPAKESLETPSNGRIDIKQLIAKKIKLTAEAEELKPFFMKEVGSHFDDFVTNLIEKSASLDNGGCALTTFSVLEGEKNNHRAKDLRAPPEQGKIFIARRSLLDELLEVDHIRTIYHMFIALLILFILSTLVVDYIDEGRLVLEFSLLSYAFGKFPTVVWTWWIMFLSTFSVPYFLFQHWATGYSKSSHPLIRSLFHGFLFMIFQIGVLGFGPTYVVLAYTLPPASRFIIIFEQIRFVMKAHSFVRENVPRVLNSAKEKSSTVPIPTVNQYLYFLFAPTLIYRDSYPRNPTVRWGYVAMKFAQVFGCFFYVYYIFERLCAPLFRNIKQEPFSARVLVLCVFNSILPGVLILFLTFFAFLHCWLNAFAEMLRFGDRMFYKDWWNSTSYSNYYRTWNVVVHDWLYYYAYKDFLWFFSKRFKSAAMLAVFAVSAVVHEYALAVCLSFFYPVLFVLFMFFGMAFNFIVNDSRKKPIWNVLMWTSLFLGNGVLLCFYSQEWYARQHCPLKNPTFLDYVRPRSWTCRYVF
Source text: (§1) In Vitro Assay of ACAT Activity in Yeast Microsomes. The cDNA inserts of the longest ARGP1 and ARGP2 HepG2 library clones were removed by NotI, EcoRI digestion and ligated into the yeast expression vector pRS426GP which utilizes the galactose inducible GAL1/GAL10 promoter. A cDNA corresponding to the coding region of human ACAT1 flanked by 5 bp of 5' untranslated region and 1 bp of 3' untranslated region, in pRS426GP was described previously (27). Yeast strain, SCY059 (MATα, ade2-1, can1-1, trp1-1, ura3-1, his3-11, 15, leu2-3, 112, metl4Δ14HpaI-SalI,are1ΔNA::HIS3, are2Δ::LEU2 ) with deletions in ARE1 and ARE2, the yeast homologs of human ACAT1 (4), was transformed with the above constructs or pRS426GP using lithium acetate and nucleic acid prototrophy selection (28). […] Culturing of the transformed yeast, induction of expression, microsome isolation, and sterol esterification assays were as described previously […]. In those experiments involving diethylpyrocarbonate (DEPC) to modify histidine residues, a preincubation with 100 μM DEPC was performed as described (2).
(§2) Assay of ACAT activity in ACAT negative yeast transformed with ARGP1 and ARGP2. The ability of ARGP1 and ARGP2 to esterify sterols was assayed in a sterol esterification deficient yeast strain (SCY059) in which the endogenous ARE genes were deleted . […]

ACAT2 (ARGP2) = molecular target: T2, ACAT2 (ARGP2) (Homo sapiens, UniProt O75908); experiment: In vitro assay of ACAT activity in yeast microsomes expressing ARGP2 (ACAT2) (inhibitor sensitivity); type: biochemical
T2 construct: The cDNA inserts of the longest ARGP1 and ARGP2 HepG2 library clones were removed by NotI, EcoRI digestion and ligated into the yeast expression vector; made in house; host or cells: Saccharomyces cerevisiae strain SCY059 (are1 are2 deleted), vector pRS426GP, GAL1/GAL10 promoter; microsomes
T2 sequence (O75908 1-522): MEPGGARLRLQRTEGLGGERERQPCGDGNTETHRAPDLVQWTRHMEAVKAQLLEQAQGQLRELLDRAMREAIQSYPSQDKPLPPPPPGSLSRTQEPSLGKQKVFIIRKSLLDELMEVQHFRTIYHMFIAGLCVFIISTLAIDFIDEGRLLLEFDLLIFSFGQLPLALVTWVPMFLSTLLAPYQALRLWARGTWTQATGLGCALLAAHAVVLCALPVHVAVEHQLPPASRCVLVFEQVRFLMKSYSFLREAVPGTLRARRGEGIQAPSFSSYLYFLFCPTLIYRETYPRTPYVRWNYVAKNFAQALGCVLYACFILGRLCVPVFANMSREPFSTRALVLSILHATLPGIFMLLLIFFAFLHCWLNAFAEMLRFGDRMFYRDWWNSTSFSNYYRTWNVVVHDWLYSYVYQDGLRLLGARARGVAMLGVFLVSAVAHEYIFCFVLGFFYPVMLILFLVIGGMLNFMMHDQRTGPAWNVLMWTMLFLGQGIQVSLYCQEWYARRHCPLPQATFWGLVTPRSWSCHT
Source text: as §1, §2

[1] = tested on: incorporation of [14C]-oleate into sterol ester; experiment: In vitro microsomal ACAT activity of cDNAs expressed in ACAT-negative yeast SCY059
Source text: as §1
Assay of ACAT activity in ACAT negative yeast transformed with ARGP1 and ARGP2. The ability of ARGP1 and ARGP2 to esterify sterols was assayed in a sterol esterification deficient yeast strain (SCY059) in which the endogenous ARE genes were deleted . Microsomes from these yeast, transformed with an expression vector harboring no insert or cDNA inserts for ARGP1, ARGP2, or human ACAT1 were assayed in vitro for the incorporation of [^14 C]-oleate into sterol ester.

## CCOC(=O)OC(=O)OCC [DEPC, diethylpyrocarbonate]
Human ACAT1; 100 μm DEPC, ACAT1
  Degree of Inhibition: 80%
Human ACAT1; ACAT1 microsomes preincubated with 100 μm DEPC, triplicate
  Active site Modification: Plus DEPC (100 μm) (ACAT activity): 69 +/- 4
ACAT2 (ARGP2); 100 μm DEPC, ACAT2
  Degree of Inhibition: 33%
ACAT2 (ARGP2); ACAT2 microsomes preincubated with 100 μm DEPC, triplicate
  Active site Modification: Plus DEPC (100 μm) (ACAT activity): 30 +/- 1

B1: ARGP1: ACAT Related Gene Product 1, 488 amino acid protein (SEQ ID NO:1), proposed diacylglycerol acyltransferase (protein)
chain: MGDRGSSRRRRTGSRPSSHGGGGPAAAEEEVRDAAAGPDVGAAGDAPAPAPNKDGDAGVGSGHWELRCHRLQDSLFSSDSGFSNYRGILNWCVVMLILSNARLFLENLIKYGILVDPIQVVSLFLKDPHSWPAPCLVIAANVFAVAAFQVEKRLAVGALTEQAGLLLHVANLATILCFPAAVVLLVESITPVGSLLALMAHTILFLKLFSYRDVNSWCRRARAKAASAGKKASSAAAPHTVSYPDNLTYRDLYYFLFAPTLCYELNFPRSPRIRKRFLLRRILEMLFFTQLQVGLIQQWMVPTIQNSMKPFKDMDYSRIIERLLKLAVPNHLIWLIFFYWLFHSCLNAVAELMQFGDREFYRDWWNSESVTYFWQNWNIPVHKWCIRHFYKPMLRRGSSKWMARTGVFLASAFFHEYLVSVPLRMFRLWAFTGMMAQIPLAWFVGRFFQGNYGNAAVWLSLIIGQPIAVLMYVHDYYVLNYEAPAAEA
[1]; expressed in yeast
  ACAT activity (sterol esterification), result in words: did not display significant ACAT activity; also recorded: failed to detectably esterify cholesterol or ergosterol
[1]; microsomes of transformed yeast SCY059, exogenous cholesterol in Triton WR-1339, three experiments on different preparations
  In Vitro Microsomal ACAT activity (cholesterol ester formation rate): 4 +/- 3 pmol/minute/μg microsomal prot

B2: ACAT1: human acyl Coenzyme A-cholesterol acyltransferase 1 expressed in yeast from cDNA (protein, UniProt P35610 1-550, looked up)
Sterol O-acyltransferase 1: T1 sequence (P35610 1-550)
[1]
  In Vitro Microsomal ACAT activity (cholesterol ester formation rate): 340 +/- 76 pmol/minute/μg microsomal prot
[1]; no DEPC preincubation, representative experiment in triplicate
  Active site Modification: Minus DEPC (ACAT activity): 340 +/- 16
